Measurements as given in article PMC5303821, “Major sulfonate transporter Soa1 in Saccharomyces cerevisiae and considerable substrate diversity in its fungal family” (Nature Communications, 2017).

What was measured:
Soa1 (YIL166C) = molecular target: T1, Soa1 (YIL166C) (Saccharomyces cerevisiae, UniProt P40445); assay: growth rate of sul1 sul2 deletion strain (Monod fit), not direct uptake; type: cell-based; settings: cell growth constant, not transport Km
T1 construct: full-length, native SOA1 locus, in sulfur-starved S. cerevisiae cells
T1 sequence (P40445 1-542): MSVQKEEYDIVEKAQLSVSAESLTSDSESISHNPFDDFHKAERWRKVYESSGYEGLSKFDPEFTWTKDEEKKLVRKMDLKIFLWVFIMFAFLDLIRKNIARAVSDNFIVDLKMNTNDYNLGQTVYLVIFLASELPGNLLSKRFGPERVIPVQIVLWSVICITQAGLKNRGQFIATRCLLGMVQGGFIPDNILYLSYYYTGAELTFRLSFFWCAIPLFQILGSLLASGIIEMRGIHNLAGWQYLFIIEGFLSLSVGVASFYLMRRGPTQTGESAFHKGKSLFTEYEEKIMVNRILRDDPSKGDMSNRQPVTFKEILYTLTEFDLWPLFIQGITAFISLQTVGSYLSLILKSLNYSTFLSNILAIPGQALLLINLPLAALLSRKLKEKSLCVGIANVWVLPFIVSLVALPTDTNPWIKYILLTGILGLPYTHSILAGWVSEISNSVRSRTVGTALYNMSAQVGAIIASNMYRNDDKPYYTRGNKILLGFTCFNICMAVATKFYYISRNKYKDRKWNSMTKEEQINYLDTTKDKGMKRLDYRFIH

[1] = substrate: O=S(=O)(O)O; assay: radiolabelled uptake in sulfur-starved cells; type: cell-based, Aspergillus nidulans; settings: pH 6.5 Bis-Tris, 30 °C, 1 min uptake, labelled compound ([35S]), H+ symport, sul1 sul2 soa1 deletion background

O=S(O)O [sulfite]
Ks (half-velocity constant for growth) (Soa1 (YIL166C); pH 6.5, sulfite as sole sulfur source): 67.4 ± 8.3 µM

O=S(=O)(O)S [thiosulfate]
Ks (half-velocity constant for growth) (Soa1 (YIL166C); pH 6.5, thiosulfate as sole sulfur source): 75.8 ± 6.0 µM

B1: AstA (Aspergillus nidulans) (protein)
chain: MADYKSTNPTVENKDDVAVPEYVIDWTLEEETKAKRKLDLMIMPILTLGFFCLQLDRGNMANAITDNFMEDVGINQDQFNVGQQMLSLGIVLTEIPSNMILYRVGPGKWLTLQLFLFGIVSTFQAFQRGYGAFIATRFLLGITESGFIPGGLWTLSTWYTRDETAKRVMIFYFGNQIGQASAKLLAYGILHMRGVGGQSGWFWLFALMGSFTVFSGFIFGFFLLDSFKNPHSTFLPKMSRFTERELHILQTRVLLDDPMKGKKKRKIGLGAFKRAFTDWRIWVHFLITLSNNGPQRAFDTYAPSIVTSFGFGRLVSNAMAAVGLFLQVPVSFAFSWVSDHYNRRGETVMLGFFCHLLGYIFNRTFTDVNLRGVRYFGVVWTQTFGTFSHPLNIAWLSLTCKDSEQRALAMAGVIMNANIAGIYGAQIFRSDDKPLYRRGFSVALSVLAVGLVLAIVRYVDTMIHRRRKLQAVEDGSEQDTDADHKLT
notes: full-length, codon-optimized synthetic gene in SOA1 locus of S. cerevisiae sul1 sul2 soa1 deletion strain
Km [1]: 7.50 ± 0.53 µM
